Reference: ChEMBL document CHEMBL1201862, “PubChem BioAssay data set” (2004)
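In this assay, cells in 96-well plates receive the compound at five concentrations for 48 hours. Endpoints are linearly interpolated between the surrounding concentrations. GI50 = concentration required for 50% inhibition of growth.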 Activity calls are given as the source filed them. Cut-off read from the data, not from the text of the source: active = GI50 up to about 1.1 µM and inactive = higher.

Legend:
Assay in all cases: growth of human tumour cells (NCI), 48 h
[1] = system: HCT-116
[2] = system: K562
[3] = system: OVCAR-8
[4] = system: OVCAR-3
[5] = system: PC-3
[6] = system: HCC 2998
[7] = system: KM12
[8] = system: MCF7
[9] = system: 786-0
[10] = system: HL-60
[11] = system: CCRF-CEM
[12] = system: SR
[13] = system: MDA-MB-231
[14] = system: Malme-3M
[15] = system: HOP-92
[16] = system: Hs-578T
[17] = system: MDA-N
[18] = system: COLO 205
[19] = system: TK-10
[20] = system: UO-31
[21] = system: SK-MEL-5
[22] = system: RXF 393
[23] = system: A498
[24] = system: NCI-H460
[25] = system: MDA-MB-435
[26] = system: MOLT-4
[27] = system: SF-268
[28] = system: DU-145
[29] = system: BT-549
[30] = system: M14
[31] = system: HT-29
[32] = system: CAKI-1
[33] = system: SNB-75
[34] = system: UACC-62
[35] = system: SK-MEL-28
[36] = system: U-251
[37] = system: OVCAR-5
[38] = system: OVCAR-4
[39] = system: ACHN
[40] = system: EKVX
[41] = system: SW-620
[42] = system: SN12C
[43] = system: T47D
[44] = system: NCI-H522
[45] = system: HOP-62
[46] = system: SNB-19
[47] = system: IGROV-1
[48] = system: NCI-H23
[49] = system: SF-539
[50] = system: HCT-15
[51] = system: NCI-H226
[52] = system: RPMI-8226
[53] = system: NCI/ADR-RES
[54] = system: SK-OV-3
[55] = system: SF-295
[56] = system: SK-MEL-2
[57] = system: UACC-257
[58] = system: A549

Measured: GI50

O=C1C(Br)=C(c2ccccc2)O/C1=C/C(=O)c1ccc(Br)cc1
89.9 µM: [50]
inactive: [1] 39.4 µM | [2] 25.6 µM | [3] 27 µM | [4] 83.2 µM | [5] 14.2 µM | [6] > 100 µM | [7] > 100 µM | [8] 36.7 µM | [9] 18.4 µM | [10] 13 µM | [11] 26.3 µM | [12] 27.5 µM | [13] 34.8 µM | [14] 58.2 µM | [15] 49.1 µM | [16] 50 µM | [17] 15.5 µM | [18] > 100 µM | [19] 37.3 µM | [20] 28.8 µM | [21] 52.8 µM | [22] 17.7 µM | [23] > 100 µM | [24] > 100 µM | [25] 42.1 µM | [26] 31.6 µM | [27] 53.1 µM | [28] > 100 µM | [29] 5.38 µM | [30] > 100 µM | [31] 36.1 µM | [32] 19 µM | [33] > 100 µM | [34] 23.9 µM | [35] 51.3 µM | [36] 30.8 µM | [37] > 100 µM | [38] 66.7 µM | [39] 38.5 µM | [40] > 100 µM | [41] 23.5 µM | [42] 8.75 µM | [43] 32.9 µM | [44] 16.9 µM | [45] > 100 µM | [46] > 100 µM | [47] 54.7 µM | [48] > 100 µM | [49] > 100 µM | [51] > 100 µM | [52] 19.1 µM

O=S(=O)(c1ccccc1)c1ccc(/N=N/O)nc1
inactive: [1] > 100 µM | [2] > 100 µM | [3] > 100 µM | [4] > 100 µM | [5] > 100 µM | [6] > 100 µM | [53] > 100 µM | [7] > 100 µM | [8] 76 µM | [9] > 100 µM | [10] > 10 µM | [11] 59.4 µM | [12] > 100 µM | [13] > 100 µM | [14] > 100 µM | [16] > 100 µM | [17] > 100 µM | [18] > 100 µM | [19] > 100 µM | [20] > 100 µM | [21] > 10 µM | [23] > 100 µM | [24] > 100 µM | [26] 22.4 µM | [27] > 100 µM | [28] > 100 µM | [54] > 100 µM | [29] > 100 µM | [55] > 100 µM | [30] > 100 µM | [56] > 100 µM | [31] > 100 µM | [57] > 100 µM | [32] > 100 µM | [33] 62.2 µM | [34] > 100 µM | [35] > 100 µM | [36] > 100 µM | [37] > 100 µM | [38] > 100 µM | [39] > 100 µM | [40] > 100 µM | [41] > 100 µM | [42] > 100 µM | [43] > 100 µM | [44] > 100 µM | [45] > 100 µM | [46] > 100 µM | [47] > 100 µM | [48] > 100 µM | [58] > 100 µM | [49] > 100 µM | [51] > 100 µM
> 100 µM: [50]
